Experimental data from patent US5006528A, “Carbostyril derivatives” (Otsuka Pharmaceutical Co., Ltd., priority 1988, dated 1991).
Like-named read-outs stand apart in the source and are kept apart here.

Tests used:
α-blocking activity = assay: Anti-epinephrine lethal activity in mouse; assay type: in vivo; conditions: read-out: Anti-epinephrine activity (ED50 mg/kg) (B)
dopaminergic receptor = assay: Anti-apomorphine activity in mouse; conditions: for ED50: Mus musculus, po, 1 h, read-out: Anti-apomorphine activity (ED50 mg/kg) (A); for (B)/(A): ratio of anti-epinephrine ED50 (B) to anti-apomorphine ED50 (A)
[1] = mouse, oral, 1 hour before lethal dose (1.5 mg/kg) of epinephrine intravenously, survival at 4 hours

How did the ED50 (α-blocking activity; Mus musculus, po, 4 h) turn out when O=C1CCc2ccc(OCCCCN3CCN(c4cccc(Cl)c4Cl)CC3)cc2N1 [Test compound 1, 7-{4-[4-(2,3-dichlorophenyl)-1-piperazinyl]butoxy}-3,4-dihydrocarbostyril] was run?
The ED50 was > 128 mg/kg.

What about the ED50 (dopaminergic receptor) of the same molecule?
Its ED50 is 0.18 mg/kg.

What about the “(B)/(A)” value (dopaminergic receptor) of the same molecule?
Its value is > 711.

What does the source list for Cc1c(N2CCN(CCCCOc3ccc4c(c3)NC(=O)CC4)CC2)cccc1[N+](=O)[O-] [Test compound 2]?
ED50 (α-blocking activity; [1]): > 128 mg/kg; ED50 (dopaminergic receptor): 0.3 mg/kg; (B)/(A) (dopaminergic receptor): > 426.7

For Cc1cccc(N2CCN(CCCCOc3ccc4c(c3)NC(=O)CC4)CC2)c1Cl [Test compound 3], which ED50 (α-blocking activity; [1]) is on record?
The ED50 was > 64 mg/kg.

What about the ED50 (dopaminergic receptor) of the same molecule?
Its ED50 is 0.4 mg/kg.

What about the “(B)/(A)” value (dopaminergic receptor) of the same molecule?
Its value is > 160.

How did the ED50 (α-blocking activity; [1]) turn out when Cc1cccc(N2CCN(CCCCOc3ccc4c(c3)NC(=O)CC4)CC2)c1Br [Test compound 4] was run?
Its ED50 is > 64 mg/kg.

What about the ED50 (dopaminergic receptor) of the same molecule?
The ED50 was 0.4 mg/kg.

What about the “(B)/(A)” value (dopaminergic receptor) of the same molecule?
The value was > 160.

Which ED50 (α-blocking activity; [1]) does the source give for O=C1CCc2ccc(OCCCCN3CCN(c4cc(Cl)cc(Cl)c4)CC3)cc2N1 [Test compound 5] here?
Its ED50 is > 128 mg/kg.

What about the ED50 (dopaminergic receptor) of the same molecule?
Its ED50 is 0.5 mg/kg.

And the “(B)/(A)” value (dopaminergic receptor)?
The value was > 256.

For O=C1CCc2ccc(OCCCCN3CCN(c4cc(Cl)cc(Cl)c4Cl)CC3)cc2N1 [Test compound 7], which ED50 (α-blocking activity; [1]) is on record?
The ED50 was > 128 mg/kg.

What about the ED50 (dopaminergic receptor) of the same molecule?
The ED50 was 0.4 mg/kg.

What about the “(B)/(A)” value (dopaminergic receptor) of the same molecule?
The value was > 320.

How did the ED50 (α-blocking activity; [1]) turn out when COc1ccccc1N1CCN(CCCCOc2ccc3c(c2)NC(=O)CC3)CC1 [Test compound 8] was run?
Its ED50 is 2.5 mg/kg.

And the ED50 (dopaminergic receptor)?
Its ED50 is 0.2 mg/kg.

What about the “(B)/(A)” value (dopaminergic receptor) of the same molecule?
The value was 12.5.

O=C1CCc2ccc(OCCCCN3CCN(c4cccc(Br)c4Br)CC3)cc2N1 [Test compound 9] was tested. Which ED50 (α-blocking activity; [1]) did it give?
Its ED50 is > 256 mg/kg.

What about the ED50 (dopaminergic receptor) of the same molecule?
The ED50 was 0.6 mg/kg.

What about the “(B)/(A)” value (dopaminergic receptor) of the same molecule?
Its value is > 426.7.

For O=c1ccc2ccc(OCCCCN3CCN(c4cccc(Cl)c4Cl)CC3)cc2[nH]1 [Test compound 10], which ED50 (α-blocking activity; [1]) is on record?
The ED50 was > 128 mg/kg.

And the ED50 (dopaminergic receptor)?
The ED50 was 0.36 mg/kg.

And the “(B)/(A)” value (dopaminergic receptor)?
Its value is > 355.

With CCOc1ccccc1N1CCN(CCCCOc2ccc3ccc(=O)[nH]c3c2)CC1 [Test compound 11] as the molecule, how does the ED50 (α-blocking activity; [1]) read?
Its ED50 is 3.8 mg/kg.

And the ED50 (dopaminergic receptor)?
Its ED50 is 0.12 mg/kg.

And the “(B)/(A)” value (dopaminergic receptor)?
Its value is 31.6.
